Assay results from patent US20220125051A1, “PRE-HARVEST DESICCATION METHOD” (SYNGENTA CROP PROTECTION AG, priority 2019, published 2022).
Values joined by “and” are separate entries in the source; they are usually repeats but may differ in a detail not shown here. Identical values can stand only once.

Columns and labels:
Assay type in all cases: in vivo
[1] = test system: Lolium perenne (LOLPE); assay: Post-emergence efficacy, Method B; conditions: Method B, 1000 g/Ha, 100=total damage to plant, 0=no damage, read-out: Control of weed species after post-emergence application, LOLPE
Method: (§1) An “instant formulation”, known as the IF50, containing 50 g/L of the “technical” (i.e. unformulated) active ingredient was prepared by dissolving the active ingredient in a mixture of organic solvents and emulsifier, details of which are provided in the table. This IF50 was then mixed with a small, variable amount of acetone to aid dissolution, before addition of an aqueous solution of 1% v/v ammonium sulphate+1% v/v Empicol ESC70 (Sodium lauryl ether sulphate) adjuvant, as the aqueous diluent, to form an aqueous spray solution which contains a predetermined concentration of the active ingredient (which varies depending on the application rate of the active ingredient to the plants).
(§2) This aqueous spray solution was then sprayed onto the plants, after about 12 days' cultivation. The plants were grown from seeds sown in standard soil, placed in a glasshouse under controlled conditions (at 24/18° C. or 20/16° C., day/night; 16 hours light; 65% humidity). After spray application the plants were then grown on in a glasshouse under the same conditions and watered twice daily. […] the test was evaluated (100=total damage to plant; 0=no damage to plant).
(§3) Ipomoea hederacea (IPOHE), Euphorbia heterophylla (EPHHL), Chenopodium album (CHEAL), Amaranthus retroflexus (AMARE), Lolium perenne (LOLPE), Digitaria sanguinalis (DIGSA), Eleusine indica (ELEIN), Echinochloa crus-galli (ECHCG), Setaria faberi (SETFA)

[2] = test system: Digitaria sanguinalis (DIGSA); assay: Post-emergence efficacy, Method B; conditions: Method B, 1000 g/Ha, 100=total damage to plant, 0=no damage, read-out: Control of weed species after post-emergence application, DIGSA
Method: as §1, §2, §3

[3] = test system: Ipomoea hederacea (IPOHE); assay: Post-emergence efficacy, Method B; conditions: Method B, 1000 g/Ha, 100=total damage to plant, 0=no damage, read-out: Control of weed species after post-emergence application, IPOHE
Method: as §1, §2, §3

[4] = test system: Chenopodium album (CHEAL); assay: Post-emergence efficacy, Method B; conditions: Method B, 1000 g/Ha, 100=total damage to plant, 0=no damage, read-out: Control of weed species after post-emergence application, CHEAL
Method: as §1, §2, §3

[5] = test system: Setaria faberi (SETFA); assay: Post-emergence efficacy, Method B; conditions: Method B, 1000 g/Ha, 100=total damage to plant, 0=no damage, read-out: Control of weed species after post-emergence application, SETFA
Method: as §1, §2, §3

[6] = test system: Amaranthus retroflexus (AMARE); assay: Post-emergence efficacy, Method B; conditions: Method B, 1000 g/Ha, 100=total damage to plant, 0=no damage, read-out: Control of weed species after post-emergence application, AMARE
Method: as §1, §2, §3

[7] = test system: Echinochloa crus-galli (ECHCG); assay: Post-emergence efficacy, Method B; conditions: Method B, 1000 g/Ha, 100=total damage to plant, 0=no damage, read-out: Control of weed species after post-emergence application, ECHCG
Method: as §1, §2, §3

[8] = test system: Glycine Max (GLXMA); assay: Pre-harvest desiccation of crop plants; conditions: Table E, evaluated after 7 and 14 days (which not stated), 100=total damage to plant, 0=no damage
Method: (§4) Seeds of a variety of test species were sown in standard loam based soil in pots. After cultivation from between 21 and 28 days (post-emergence) under controlled conditions in a glasshouse (at 24/16° C., day/night; 14 hours light; 65% humidity) for warm climate species and (at 20/16° C. day/night; 15 hours light; 65% humidity) for cool climate species.
(§5) The plants were sprayed with an aqueous spray solution derived from dissolving the technical active ingredient formula in a small amount of acetone and a special solvent and emulsifier mixture referred to as IF50 (11.12% Emulsogen EL360 TM+44.44% N-methylpyrrolidone+44.44% Dowanol DPM glycol ether), to create a 50 g/I solution which was then diluted to required concentration using a solution of 1% Empicol ESC70 (Sodium lauryl ether sulphate)+1% ammonium sulphate in water as diluent.
(§6) The delivery of the aqueous spray solution was via a laboratory track sprayer which delivered the aqueous spray composition at a rate of 200 litres per hectare, using a flat fan nozzle (Teejet 11002VS) and an application volume of 200 litre/ha (at 2 bar).
(§7) The test plants were then grown in a glasshouse under controlled conditions (at 24/16° C., day/night; 14 hours light; 65% humidity) for warm climate species and (at 20/16° C. day/night; 15 hours light; 65% humidity) for cool climate species and watered twice daily. After 7 and 14 days the test was evaluated (100=total damage to plant; 0=no damage to plant).
(§8) A value of n/t indicates not tested.
(§9) Glycine Max (GLXMA), Solanum turberosum (SOLTU), Gossypium hirsutum (GOSHI), Brassica napus (BRSNN), Helianthus annus (HELAN)

[9] = test system: Gossypium hirsutum (GOSHI); assay: Pre-harvest desiccation of crop plants; conditions: Table E, evaluated after 7 and 14 days (which not stated), 100=total damage to plant, 0=no damage
Method: as §4, §5, §6, §7, §8, §9

[10] = test system: Brassica napus (BRSNN); assay: Pre-harvest desiccation of crop plants; conditions: Table E, evaluated after 7 and 14 days (which not stated), 100=total damage to plant, 0=no damage
Method: as §4, §5, §6, §7, §8, §9

[11] = test system: Solanum turberosum (SOLTU); assay: Pre-harvest desiccation of crop plants; conditions: Table E; 75 g/Ha; evaluated after 7 and 14 days (which not stated); 100=total damage to plant, 0=no damage
Method: as §4, §5, §6, §7, §8, §9

[12] = test system: Lolium perenne (LOLPE); assay: Post-emergence efficacy, Method A; conditions: Application Rate 500 g/Ha; evaluated after 13 days; Method A
How it was run: (§10)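 Plants grown 14 days in glasshouse (24/16 °C, 14 h light, 65% humidity) were sprayed with compound formulated in IF50. The spray was diluted in 0.25% or 1% Empicol ESC70 plus 1% ammonium sulphate. Damage was scored 13 days later on a 0-100 scale, where 100 is total damage.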

[13] = test system: Amaranthus palmeri (AMAPA); assay: Post-emergence efficacy, Method A; conditions: Application Rate 500 g/Ha; evaluated after 13 days; Method A
How it was run: as §10

[14] = test system: Euphorbia heterophylla (EPHHL); assay: Post-emergence efficacy, Method A; conditions: Application Rate 500 g/Ha; evaluated after 13 days; Method A
How it was run: as §10

[15] = test system: Eleusine indica (ELEIN); assay: Post-emergence efficacy, Method A; conditions: Application Rate 500 g/Ha; evaluated after 13 days; Method A
How it was run: as §10

[16] = test system: Digitaria sanguinalis (DIGSA); assay: Post-emergence efficacy, Method A; conditions: Application Rate 500 g/Ha; evaluated after 13 days; Method A
How it was run: as §10

[17] = test system: Ipomoea hederacea (IPOHE); assay: Post-emergence efficacy, Method A; conditions: Application Rate 500 g/Ha; evaluated after 13 days; Method A
How it was run: as §10

[18] = test system: Chenopodium album (CHEAL); assay: Post-emergence efficacy, Method A; conditions: Application Rate 500 g/Ha; evaluated after 13 days; Method A
How it was run: as §10

[19] = test system: Setaria faberi (SETFA); assay: Post-emergence efficacy, Method A; conditions: Application Rate 500 g/Ha; evaluated after 13 days; Method A
How it was run: as §10

[20] = test system: Echinochloa crus-galli (ECHCG); assay: Post-emergence efficacy, Method A; conditions: Application Rate 500 g/Ha; evaluated after 13 days; Method A
How it was run: as §10

Row | Structure (SMILES) | Control of weed species after post-emergence application, LOLPE (100=total damage to plant; 0=no damage to plant) [12] | Control of weed species after post-emergence application, AMAPA (100=total damage to plant; 0=no damage to plant) [13] | Control of weed species after post-emergence application, EPHHL (100=total damage to plant; 0=no damage to plant) [14] | Control of weed species after post-emergence application, ELEIN (100=total damage to plant; 0=no damage to plant) [15] | Control of weed species after post-emergence application, DIGSA (100=total damage to plant; 0=no damage to plant) [16] | Control of weed species after post-emergence application, IPOHE (100=total damage to plant; 0=no damage to plant) [17] | Control of weed species after post-emergence application, CHEAL (100=total damage to plant; 0=no damage to plant) [18] | Control of weed species after post-emergence application, SETFA (100=total damage to plant; 0=no damage to plant) [19] | Control of weed species after post-emergence application, ECHCG (100=total damage to plant; 0=no damage to plant) [20] | other results
1 | N#C[N-]C(=O)CC[n+]1ccc(-c2ncccn2)cn1 [Compound A226] | – | – | – | – | – | – | – | – | – | pest or weed control at 1000 g/ha [1]: 70%; pest or weed control at 1000 g/ha [2]: 100%; pest or weed control at 1000 g/ha [3]: 100%; pest or weed control at 1000 g/ha [4]: 100%; pest or weed control at 1000 g/ha [5]: 70%; pest or weed control at 1000 g/ha [6]: 100%; pest or weed control at 1000 g/ha [7]: 100%
2 | Cl.O=C(O)CC[n+]1ccc(-c2cccnn2)cn1.[Cl-] [Compound A234, 3-(4-pyridazin-1-ium-3-ylpyridazin-1-ium-1-yl)propanoic acid dichloride] | – | – | – | – | – | – | – | – | – | Post-emergence dessication efficacy, GLXMA ([8]; 75 g/Ha): 25; Post-emergence dessication efficacy, GLXMA ([8]; 150 g/Ha): 97 and 52; Post-emergence dessication efficacy, GLXMA ([8]; 300 g/Ha): 97 and 67; Post-emergence dessication efficacy, GLXMA ([8]; 600 g/Ha): 97 and 63; Post-emergence dessication efficacy, GOSHI ([9]; 75 g/Ha): 33; Post-emergence dessication efficacy, GOSHI ([9]; 600 g/Ha): 100 and 50; Post-emergence dessication efficacy, BRSNN ([10]; 75 g/Ha): 77; Post-emergence dessication efficacy, BRSNN ([10]; 150 g/Ha): 99; Post-emergence dessication efficacy, BRSNN ([10]; 300 g/Ha): 100; Post-emergence dessication efficacy, BRSNN ([10]; 600 g/Ha): 100; Post-emergence dessication efficacy, SOLTU [11]: 7
3 | COP(=O)(C[n+]1ccc(-c2ccncn2)cn1)OC.O=S(=O)([O-])C(F)(F)F [Compound A237] | 10 | 60 | 0 | 70 | 50 | 50 | 10 | 20 | 10 | –
4 | COP(=O)(C[n+]1ccc(-c2ncccn2)cn1)OC.O=S(=O)([O-])C(F)(F)F [Compound A238, 1-(dimethoxyphosphorylmethyl)-4-pyrimidin-2-yl-pyridazin-1-ium trifluoromethanesulfonate] | 10 | 50 | 50 | 30 | 50 | 40 | 20 | 50 | 40 | –
